The record followed here is article PMC6657233 (Translational Oncology, 2019).

In the assay the target is T1, adenosine transporter (AT; NBMPR-sensitive equilibrative nucleoside transporter subtype, ENT) (Homo sapiens, UniProt Q99808).
T1 sequence (Q99808 2-456): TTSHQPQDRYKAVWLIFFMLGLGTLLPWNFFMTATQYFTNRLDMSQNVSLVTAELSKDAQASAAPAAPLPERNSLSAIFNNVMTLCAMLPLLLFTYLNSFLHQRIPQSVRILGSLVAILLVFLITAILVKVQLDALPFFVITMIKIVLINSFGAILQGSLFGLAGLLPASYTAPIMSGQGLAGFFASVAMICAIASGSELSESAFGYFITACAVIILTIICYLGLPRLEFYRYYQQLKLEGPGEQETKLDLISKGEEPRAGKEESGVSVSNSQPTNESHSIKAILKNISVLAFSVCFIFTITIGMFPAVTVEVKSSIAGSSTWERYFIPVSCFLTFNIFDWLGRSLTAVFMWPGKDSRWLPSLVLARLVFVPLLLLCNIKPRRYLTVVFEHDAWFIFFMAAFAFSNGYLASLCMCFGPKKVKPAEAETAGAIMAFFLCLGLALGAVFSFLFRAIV
Put plainly: [3H]adenosine uptake inhibition in HeLa cells. It counts as cell-based. The following applies: read-out: Findings.

Turning to `COCCOc1cnc2ccn([C@H](C)c3nnc4c(F)cc(-c5cnn(C)c5)cn34)c(=O)c2c1` [AMG 337], the IC50 turned out to be 280 nM.
